Results published in patent US12013390B2, “EBIV nucleic acid composition and application thereof” (Wuhan Institute of Virology, Chinese Academy of Sciences, priority 2022, dated 2024).

test system: recombinant EBIV carrying green fluorescent protein; test: Antiviral drug screening with green fluorescent recombinant EBIV in BHK-21 cells, fluorescence per well by high content screening; format: cell-based, Ebinur Lake virus (EBIV); details: Ebinur lake virus, BHK-21, 36 h, read-out: EC50 (half-maximal effect concentration)
Procedure: Further, the recombinant EBIV disclosed in the examples of the present application can also be used for the screening of antiviral drugs, for example for the screening of antiviral compounds. The specific steps were as follows.
(1) A 96-well plate for BHK-21 cells was prepared. The cells were planked at 10^4 cells/well. The plate was cultured in a cell incubator with a temperature of 37° C. and a CO2 concentration of 5%. The drug screening test was conducted when the cells grew to 40-50%. The drug to be tested was dissolved in dimethyl sulfoxide. Then the drug was diluted to 100 μM with DMEM medium containing 2% FBS. After that, the drug was subjected to serial 2-fold dilution to obtain the dilution gradient with the concentration of 100 μM, 50 μM, 25 μM, 12.5 μM, 6.25 μM, 3.125 μM, and 1.5625 μM, respectively (the concentration of DMSO in the diluted drug shall be <0.1%).
(2) The original culture medium was removed from the 96-well plate. The virus was inoculated into the 96-well plate at an MOI of 0.01 and a volume of 100 μL/well. At the same time, the diluted drugs to be tested were respectively added into the same 96-well plate at 100 μL/well and mixed well with the virus solution. The plate was incubated in a cell incubator with a temperature of 37° C. and a CO2 concentration of 5% for 36 hours before detection.
(3) The 96-well plate was photographed and data was analyzed using a high content screening (HCS) system to determine the amount of fluorescence per well and calculate the Z-factor for each compound:
[formula] where the four parameters σs, σc, μs, and μc represent the standard deviation and mean of the sample to be tested (s) and the negative (c) control, respectively. The stability and sensitivity of the screening system were then assessed using the Z′-factor:
[formula] where the four parameters σp, σn, μp, and μn represent the standard deviation and mean of the positive sample (p) and the negative (n) control, respectively.
(4) Cell viability per well (and the percentage of cells remaining per well) was observed under a microscope and the half-maximal effect concentration (EC50) of the drug was calculated using GraphPad Prism 9 software and an EC50 graph was plotted.

Row | Compound | EC50 [µM]
1 | NC(=O)c1ncn([C@@H]2O[C@H](CO)[C@@H](O)[C@H]2O)n1 [ribavirin, reference compound] | 21.9

same assay, conditions: even at 50 μM; BHK-21 cells, MOI 0.01, 36 hours

Row | Compound | inhibitory effect on the virus
2 | NC(=O)c1nc(F)c[nH]c1=O [favipiravir, reference compound] | no inhibitory effect

same assay, conditions: high-content screening; compared with Z'-factor 0.46 of the system (25 μM ribavirin positive control)

Row | Compound | Z-factor
3 | CC(C)=CCC(OC(=O)C=C(C)C)C1=CC(=O)c2c(O)ccc(O)c2C1=O (stereo not drawn) [Beta, beta-dimethyl acryl shikonin] | 0.53
4 | C[C@@]12C(=O)OC(=O)[C@]1(C)[C@H]1CC[C@@H]2O1 [Cantharidin] | 0.50
5 | C[C@H](CCC(=O)O)[C@H]1CC[C@H]2[C@@H]3[C@H](O)C[C@@H]4C[C@H](O)CC[C@]4(C)[C@H]3CC[C@]12C [Chenodeoxycholic acid, reference compound] | 0.59
6 | COc1ccc(-c2cc(=O)c3c(O)cc(O[C@@H]4O[C@H](CO[C@@H]5O[C@@H](C)[C@H](O)[C@@H](O)[C@H]5O)[C@@H](O)[C@H](O)[C@H]4O)cc3o2)cc1O [Diosmin, reference compound] | 0.58
7 | Oc1cc(O)c2c(c1)O[C@H](c1cc(O)c(O)c(O)c1)[C@H](O)C2 [Epigallocatechol] | 0.51
8 | CC(C)=CCc1c(O)ccc(C(=O)/C=C/c2ccc(O)cc2)c1O [Isobavachalcone] | 0.58
9 | CC(C)=CCc1cc2c(cc1O)oc(=O)c1c3ccc(O)cc3oc21 [Psoralidin] | 0.46
10 | C=C[C@H]1[C@H](O[C@@H]2O[C@H](CO)[C@@H](O)[C@H](O)[C@H]2O)OC=C(C(=O)OC)[C@H]1CC(=O)O [Secoxyloganin] | 0.56
11 | Clinodiside Aogenin A | 0.54
